The source of these data is patent US11446287B2, “Compounds and methods for EP300 or CBP modulation and indications therefor” (Opna Immuno-Oncology SA, priority 2019, dated 2022).

The target in this experiment is T1, Recombinant human EP300 containing the bromodomain (EP300-BD (1040-1161)) (Homo sapiens, UniProt Q09472).
T1 construct: Recombinant human EP300 bromodomain (EP300-BD (1040-1161)); made in house; host or cells: E. coli BL21-CodonPlus (DE3), modified pET vector
T1 sequence (Q09472 1040-1161): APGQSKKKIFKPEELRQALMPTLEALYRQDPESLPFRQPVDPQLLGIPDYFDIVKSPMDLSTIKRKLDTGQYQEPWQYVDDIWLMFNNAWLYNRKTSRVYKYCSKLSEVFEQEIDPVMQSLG
Nature of the experiment: EP300 Alphascreen binding assay. The method in brief:
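Displacement of a biotinylated acetyl-K56 histone H3 peptide from the N-His bromodomain construct (1040-1161) measured by AlphaScreen proximity, beads at 7.5 μg/ml final, read 60 min after addition. Protein, peptide and compound first incubated 1 h at room temperature, pH 7.5 HEPES buffer; IC50 by four-parameter logistic fit.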
In general terms: In Alpha technology, singlet oxygen from a donor bead excites a nearby acceptor bead.
Turning to `Cc1noc(C)c1-c1cnc2c(c1)c(-c1ccc(C(N)=O)cc1)cn2C(c1ccccn1)C1CCCC1` (stereo not drawn) [P-0020, 4-(1-(cyclopentyl(pyridin-2-yl)methyl)-5-(3,5-dimethylisoxazol-4-yl)-1H-pyrrolo[2,3-b]pyridin-3-yl)benzamide], the IC50 is 1 to 8 µM.

For the compound `CNC(=O)c1ccc(-c2cn(C(c3ccccn3)C3CCCC3)c3ncc(-c4c(C)noc4C)cc23)cc1` (stereo not drawn) [P-0021, 4-(1-(cyclopentyl(pyridin-2-yl)methyl)-5-(3,5-dimethylisoxazol-4-yl)-1H-pyrrolo[2,3-b]pyridin-3-yl)-N-methylbenzamide], the IC50 lay in the range of 1 to 8 µM.

`Cc1noc(C)c1-c1cnc2c(c1)c(-c1ccc(C#N)cc1)cn2C(c1ccccn1)C1CCCC1` (stereo not drawn) [P-0022, 4-(1-(cyclopentyl(pyridin-2-yl)methyl)-5-(3,5-dimethylisoxazol-4-yl)-1H-pyrrolo[2,3-b]pyridin-3-yl)benzonitrile]: the 50% inhibitory concentration (IC50) lay in the range of 8 to 1000 µM.

Consider `Cc1noc(C)c1-c1cnc2c(c1)c(-c1ccc3c(c1)CNC3=O)cn2C(c1ccccn1)C1CCCC1` (stereo not drawn) [P-0023, 5-(1-(cyclopentyl(pyridin-2-yl)methyl)-5-(3,5-dimethylisoxazol-4-yl)-1H-pyrrolo[2,3-b]pyridin-3-yl)isoindolin-1-one], for which the IC50 fell in the range of 1 to 8 µM.

Take `Cc1noc(C)c1-c1cnc2c(c1)c(-c1ccc(-c3nn[nH]n3)cc1)cn2C(c1ccccn1)C1CCCC1` (stereo not drawn) [P-0024, 4-(3-(4-(2H-tetrazol-5-yl)phenyl)-1-(cyclopentyl(pyridin-2-yl)methyl)-1H-pyrrolo[2,3-b]pyridin-5-yl)-3,5-dimethylisoxazole]: the IC50 was 1 to 8 µM.

In the case of `Cc1noc(C)c1-c1cnc2c(c1)c(-c1ccc(C(=O)O)c(F)c1)cn2C(c1ccccn1)C1CCCC1` (stereo not drawn) [P-0025, 4-(1-(cyclopentyl(pyridin-2-yl)methyl)-5-(3,5-dimethylisoxazol-4-yl)-1H-pyrrolo[2,3-b]pyridin-3-yl)-2-fluorobenzoic acid], the half-maximal inhibitory concentration (IC50) was 0.0001 to 1 µM.

Take `Cc1noc(C)c1-c1cnc2c(c1)c(-c1ccc(C(=O)O)nc1)cn2C(c1ccccn1)C1CCCC1` (stereo not drawn) [P-0026, 5-(1-(cyclopentyl(pyridin-2-yl)methyl)-5-(3,5-dimethylisoxazol-4-yl)-1H-pyrrolo[2,3-b]pyridin-3-yl)picolinic acid]: the IC50 fell in the range of 0.0001 to 1 µM.

For the compound `Cc1cc(-c2c(C(F)(F)F)n([C@@H](C)c3ccccn3)c3cc(-c4c(C)noc4C)cnc23)ccc1C(=O)O` [P-0243, (S)-4-(6-(3,5-dimethylisoxazol-4-yl)-1-(1-(pyridin-2-yl)ethyl)-2-(trifluoromethyl)-1H-pyrrolo[3,2-b]pyridin-3-yl)-2-methylbenzoic acid], the IC50 fell in the range of 1 to 8 µM.

As for `COc1cc(-c2c(C(F)(F)F)n([C@@H](C)c3ccccn3)c3cc(-c4c(C)noc4C)cnc23)ccc1C(=O)O` [P-0244, (S)-4-(6-(3,5-dimethylisoxazol-4-yl)-1-(1-(pyridin-2-yl)ethyl)-2-(trifluoromethyl)-1H-pyrrolo[3,2-b]pyridin-3-yl)-2-methoxybenzoic acid], the IC50 lay in the range of 1 to 8 µM.

As to `Cc1noc(C)c1-c1cnc2c(-c3cccc(C(=O)O)c3F)c(C(F)(F)F)n([C@@H](C)c3ccccn3)c2c1` [P-0245, (S)-3-(6-(3,5-dimethylisoxazol-4-yl)-1-(1-(pyridin-2-yl)ethyl)-2-(trifluoromethyl)-1H-pyrrolo[3,2-b]pyridin-3-yl)-2-fluorobenzoic acid], the IC50 is 0.0001 to 1 µM.

For the compound `Cc1noc(C)c1-c1cnc2c(-c3cccc(C(=O)O)c3C)c(C(F)(F)F)n([C@@H](C)c3ccccn3)c2c1` [P-0246, (S)-3-(6-(3,5-dimethylisoxazol-4-yl)-1-(1-(pyridin-2-yl)ethyl)-2-(trifluoromethyl)-1H-pyrrolo[3,2-b]pyridin-3-yl)-2-methylbenzoic acid], the IC50 lay within 1 to 8 µM.

On to `Cc1noc(C)c1-c1cnc2c(-c3cccc(C(=O)O)c3Cl)c(C(F)(F)F)n([C@@H](C)c3ccccn3)c2c1` [P-0247, (S)-2-chloro-3-(6-(3,5-dimethylisoxazol-4-yl)-1-(1-(pyridin-2-yl)ethyl)-2-(trifluoromethyl)-1H-pyrrolo[3,2-b]pyridin-3-yl)benzoic acid], for which the half-maximal inhibitory concentration (IC50) was in the range of 0.0001 to 1 µM.

Consider `CCOC(=O)c1cc(-c2cn(-c3ccc(F)cc3F)c3ncc(-c4c(C)noc4C)cc23)c(OCC)cc1O` [P-0248, ethyl 5-(1-(2,4-difluorophenyl)-5-(3,5-dimethylisoxazol-4-yl)-1H-pyrrolo[2,3-b]pyridin-3-yl)-4-ethoxy-2-hydroxybenzoate], for which the IC50 is 8 to 1000 µM.

In the case of `CCOc1cc(O)c(C(=O)O)cc1-c1cn(-c2ccc(F)cc2F)c2ncc(-c3c(C)noc3C)cc12` [P-0249, 5-(1-(2,4-difluorophenyl)-5-(3,5-dimethylisoxazol-4-yl)-1H-pyrrolo[2,3-b]pyridin-3-yl)-4-ethoxy-2-hydroxybenzoic acid], the 50% inhibitory concentration (IC50) is 0.0001 to 1 µM.

On to `CCOc1cc(OC)c(C(=O)O)cc1-c1cn(-c2ccc(F)cc2F)c2ncc(-c3c(C)noc3C)cc12` [P-0250, 5-(1-(2,4-difluorophenyl)-5-(3,5-dimethylisoxazol-4-yl)-1H-pyrrolo[2,3-b]pyridin-3-yl)-4-ethoxy-2-methoxybenzoic acid], for which the IC50 was 0.0001 to 1 µM.

As for `Cc1noc(C)c1-c1cnc2c(c1)c(-c1ccc(C(=O)O)cc1OC(F)(F)F)cn2-c1cnccc1F` [P-0251, 4-(5-(3,5-dimethylisoxazol-4-yl)-1-(4-fluoropyridin-3-yl)-1H-pyrrolo[2,3-b]pyridin-3-yl)-3-(trifluoromethoxy)benzoic acid], the IC50 is 0.0001 to 1 µM.

Turning to `Cc1noc(C)c1-c1cnc2c(c1)c(-c1ccc(C(=O)O)cc1OC(F)(F)F)cn2-c1cnccc1O` [P-0252, 4-(5-(3,5-dimethylisoxazol-4-yl)-1-(4-hydroxypyridin-3-yl)-1H-pyrrolo[2,3-b]pyridin-3-yl)-3-(trifluoromethoxy)benzoic acid], the IC50 lay within 0.0001 to 1 µM.

In the case of `Cc1noc(C)c1-c1cnc2c(c1)c(-c1ccc(C(=O)O)cc1OC(F)(F)F)cn2-c1ccncc1Cl` [P-0253, 4-(1-(3-chloropyridin-4-yl)-5-(3,5-dimethylisoxazol-4-yl)-1H-pyrrolo[2,3-b]pyridin-3-yl)-3-(trifluoromethoxy)benzoic acid], the IC50 was 0.0001 to 1 µM.

On to `Cc1noc(C)c1-c1cnc2c(c1)c(-c1ccc(C(=O)O)cc1OC(F)(F)F)cn2-c1c(F)cccc1C#N` [P-0254, 4-(1-(2-cyano-6-fluorophenyl)-5-(3,5-dimethylisoxazol-4-yl)-1H-pyrrolo[2,3-b]pyridin-3-yl)-3-(trifluoromethoxy)benzoic acid], for which the IC50 was 0.0001 to 1 µM.

As to `COc1cc(C(=O)O)cc(C)c1-c1cn(-c2ccccc2)c2ncc(-c3c(C)noc3C)cc12` [P-0255, 4-(5-(3,5-dimethylisoxazol-4-yl)-1-phenyl-1H-pyrrolo[2,3-b]pyridin-3-yl)-3-methoxy-5-methylbenzoic acid], the IC50 fell in the range of 0.0001 to 1 µM.

With `Cc1noc(C)c1-c1cnc2c(-c3ccc(C(=O)O)cc3C#N)c(C(F)(F)F)n([C@@H](C)c3ccccn3)c2c1` [P-0256, (S)-3-cyano-4-(6-(3,5-dimethylisoxazol-4-yl)-1-(1-(pyridin-2-yl)ethyl)-2-(trifluoromethyl)-1H-pyrrolo[3,2-b]pyridin-3-yl)benzoic acid], the IC50 lay within 0.0001 to 1 µM.

The term IC50 denotes the midpoint of a concentration-inhibition curve.
